US11931362B2 (CIPLA LIMITED, priority 2019, dated 2024)

System: Escherichia coli, Staphylococcus aureus, Pseudomonas aeruginosa, Candida albicans, and Aspergillus niger
Assay: Preservative efficacy test, overall outcome
Assay type: cell-based
Details: bacteria and fungi
Method: Preservative effectiveness tests are compendial-guided assays that determine efficacy for preservative systems in pharmaceutical preparations. In such assays, test formulations are challenged with standardized suspensions of indicator aerobic bacteria and molds and microorganism survival is monitored over a 28-day period. The efficacy of the preservative against various microorganisms was measured using a USP/EP preservative efficacy test. These tests were conducted on Memmert equipment. In the procedure, formulations were tested against the following microorganisms: Escherichia coli, Staphylococcus aureus, Pseudomonas aeruginosa, Candida albicans, and Aspergillus niger. The bacterial strains and fungi were inoculated at a total concentration of […]. Samples were incubated for 7 days at room temperature (25° C.), and the total bacterial and fungal counts were measured using a colony counter. The log reduction (LR) values for the bacterial and fungal counts were calculated as log (initial count/final count).

Structure (SMILES): OCc1ccccc1 [benzyl alcohol]
- preservative efficacy test outcome: effective
